# Laboratory results reported in article PMC10349806 (Nature Communications, 2023).
# Substitutions are numbered along the chain they refer to. Several values for one entry are separate records, joined by “and”; a condition that tells them apart may be missing. Identical values can stand only once.
# Assays:
# PfCRT variant E18A = experiment: CQ uptake assay, oocytes expressing E18A; format: cell-based, Plasmodium falciparum
# Protocol: (§1) Site-directed mutagenesis of PfCRT^Dd2 was performed as described using the megaprimer method with overlap extension[21],[54]. The primer pairs used are listed in Supplementary Table 6. Please note that a codon-optimized and oocyte-adapted version of PfCRT^Dd2 was used[22] (Supplementary Fig. 16). The resulting DNA fragment was cloned into the SP64T expression vector and verified by sequencing.
# (§2) Oocytes were obtained as described previously. Briefly, adult (>2 years old) female X. laevis frogs (NASCO) were anesthetized in a cooled solution of ethyl 3-amino benzoate methanesulfonate (0.1%, w/v), followed by a surgical removal of parts of the ovary. The ovary lobes were carefully dissected and small pieces of oocytes were incubated in Ca^2+-free ND96 buffer (96 mM NaCl, 2 mM KCl, 1 mM MgCl2 buffered with 5 mM HEPES/NaOH, pH 7.5) supplemented with collagenase D (0.1%, w/v; Roche), BSA (0.5%, w/v), and 9 mm Na2HPO4 at 18 °C for 14-16 h while gentle shaking. After incubation, the oocytes were carefully washed several times with ND96 buffer (96 mM NaCl, 2 mM KCl, 1.8 mM CaCl2, 1 mM MgCl2 buffered with 5 mM HEPES/NaOH, pH 7.5) supplemented with 100 mg l^−1 gentamycin). Defolliculated and healthy-looking stage V-VI oocytes were manually selected for RNA microinjection. The RNA was generated as following: The codon-optimized sequences of PfCRT variants were cloned into the pSP64T expression vector. After vector linearization using the restriction endonucleases BamHI or SalI (New England Biolabs), transcription was performed using the in vitro SP6 mMessage mMachine Kit (Ambion)[34]. The obtained RNA was kept at −80 °C and diluted with nuclease-free water to a concentration of 0.6 μg μl^−1. Precision-bore glass capillary tubes (3.5-inch glass capillaries; Drummond Scientific Co.) were pulled on a vertical puller (P-87 Flaming/Brown micropipette puller, Sutter Instrument Co.), graduated, and placed on a microinjector (Nanoject II Auto-Nanoliter Injector, Drummond Scientific Co.). 50 nl of nuclease-free water alone (control oocytes) or 50 nl of 0.6 μg μl^−1 RNA were injected under stereomicroscopic control. Injected oocytes were incubated for 46–72 h at 18 °C with twice-daily buffer changes before usage in experiments.
# (§3) Drug uptake assays were performed as described previously[21],[22],[24],[34]. […] The direction of radio-labeled drug transport is here from the mostly acidic extracellular solution (pH 4.5 or 6.0, as indicated) into the oocyte cytosol (pH ∼ 7.2), which corresponds to the efflux of drug from the acidic digestive vacuole (pH 5.2) into the parasite cytoplasm (pH 7.2). The topology of PfCRT in the oolemma is such that both the N- and C-terminus face the extracellular milieu[3],[22]. In the parasite, the N- and C-terminus face the lumen of the digestive vacuole. CQ uptake kinetics were performed by incubating oocytes in ND96 buffer adjusted to a pH of 4.5, 5.0, 5.5, or 6.0 and supplemented with 50 nM [^3H]CQ and one of 7 different CQ concentrations (10 µM, 50 µM, 100 µM, 200 µM, 300 µM, 400 µM, 500 µM CQ). The reaction was stopped at the 60 min time point, which is in the linear uptake range[22],[34] (Supplementary Fig. 17). For determination of the amount of drug uptake for each oocyte, the reaction medium was removed and the oocytes were washed three times with 2 ml of ice-cold ND96 buffer. Each oocyte was individually transferred to a scintillation vial containing 5% sodium dodecyl sulfate (200 μl) for lysis. The radioactivity of each sample was measured using a liquid scintillation analyzer Tri-Carb 4910 TR (PerkinElmer). Oocytes that were injected with water instead of RNA were analyzed in parallel, representing the uptake of a drug by diffusion and/or endogenous permeation pathways. The resulting value represents the “background“ level of drug accumulation in oocytes (in-depth discussion in[22]). […]
# PfCRT variant F322A = target: T1, PfCRT variant F322A (Plasmodium falciparum, UniProt Q9N623, A220S/F322A/I356T/K76T/M74I/N326S/N75E/Q271E/R371I); experiment: CQ uptake assay, oocytes expressing F322A; format: cell-based
# T1 sequence (Q9N623 1-424 M74I/N75E/K76T/A220S/Q271E/F322A/N326S/I356T/R371I): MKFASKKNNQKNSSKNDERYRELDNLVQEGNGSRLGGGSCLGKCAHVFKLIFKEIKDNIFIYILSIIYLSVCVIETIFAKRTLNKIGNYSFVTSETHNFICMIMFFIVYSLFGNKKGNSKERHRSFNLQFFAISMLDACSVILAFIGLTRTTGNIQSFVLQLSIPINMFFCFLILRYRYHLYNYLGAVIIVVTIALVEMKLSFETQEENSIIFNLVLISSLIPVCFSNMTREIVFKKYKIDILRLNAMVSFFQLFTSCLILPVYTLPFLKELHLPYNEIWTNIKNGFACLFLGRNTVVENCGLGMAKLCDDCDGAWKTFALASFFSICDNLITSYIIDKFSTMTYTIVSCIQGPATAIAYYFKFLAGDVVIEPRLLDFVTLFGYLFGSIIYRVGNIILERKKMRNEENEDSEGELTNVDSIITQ
# Protocol: as §1, §2, §3
# PfCRT variant D137N = target: T2, PfCRT variant D137N (Plasmodium falciparum, UniProt Q9N623, A220S/D137N/I356T/K76T/M74I/N326S/N75E/Q271E/R371I); experiment: CQ uptake assay, oocytes expressing D137N; format: cell-based
# T2 sequence (Q9N623 1-424 M74I/N75E/K76T/D137N/A220S/Q271E/N326S/I356T/R371I): T1 sequence (Q9N623 1-424 M74I/N75E/K76T/A220S/Q271E/F322A/N326S/I356T/R371I) with D137N, A322F
# Protocol: as §1, §2, §3
# [1] = E18A, 50 µM CQ, 1 h, mean ± SEM
# [2] = pH 4.5, single replicates, Fig 1d left
# [3] = pH 6.0, single replicates, Fig 1d left
# [4] = F322A, 50 µM CQ, 1 h, mean ± SEM
# [5] = D137N, 50 µM CQ, 1 h, mean ± SEM
compound,measurement,setting,value
"CCN(CC)CCCC(C)Nc1ccnc2cc(Cl)ccc12 (stereo not drawn) [CQ, chloroquine]",Activity at pH 4.5,PfCRT variant E18A; [1],1.51 ± 0.34 pmol h-1 oocyte-1
same,Activity at pH 6.0,PfCRT variant E18A; [1],2.60 ± 0.53 pmol h-1 oocyte-1
same,R-value,"PfCRT variant E18A; E18A, CQ transport at pH 4.5 / pH 6.0",0.57 ± 0.06
same,E18A transport activity pH 4.5,PfCRT variant E18A; [2],2.19 pmol oocyte-1 h-1 and 1.60 pmol oocyte-1 h-1 and 0.74 pmol oocyte-1 h-1
same,E18A R-value,"PfCRT variant E18A; pH 4.5 vs pH 6.0, Fig 1d left",0.57 and 0.70 and 0.44
same,E18A transport activity pH 6.0,PfCRT variant E18A; [3],3.85 pmol oocyte-1 h-1 and 2.27 pmol oocyte-1 h-1 and 1.67 pmol oocyte-1 h-1
same,Activity at pH 4.5,PfCRT variant F322A; [4],0.72 ± 0.12 pmol h-1 oocyte-1
same,Activity at pH 6.0,PfCRT variant F322A; [4],1.05 ± 0.12 pmol h-1 oocyte-1
same,R-value,"PfCRT variant F322A; F322A, CQ transport at pH 4.5 / pH 6.0",0.68 ± 0.04
same,F322A transport activity pH 4.5,PfCRT variant F322A; [2],0.55 pmol oocyte-1 h-1 and 1.12 pmol oocyte-1 h-1 and 0.61 pmol oocyte-1 h-1 and 0.60 pmol oocyte-1 h-1
same,F322A R-value,"PfCRT variant F322A; pH 4.5 vs pH 6.0, Fig 1d left",0.73 and 0.78 and 0.63 and 0.59
same,F322A transport activity pH 6.0,PfCRT variant F322A; [3],0.75 pmol oocyte-1 h-1 and 1.44 pmol oocyte-1 h-1 and 0.97 pmol oocyte-1 h-1 and 1.02 pmol oocyte-1 h-1
same,Activity at pH 4.5,PfCRT variant D137N; [5],0.57 ± 0.14 pmol h-1 oocyte-1
same,Activity at pH 6.0,PfCRT variant D137N; [5],0.95 ± 0.18 pmol h-1 oocyte-1
same,R-value,"PfCRT variant D137N; D137N, CQ transport at pH 4.5 / pH 6.0",0.59 ± 0.04
same,D137N transport activity pH 4.5,PfCRT variant D137N; [2],0.77 pmol oocyte-1 h-1 and 0.37 pmol oocyte-1 h-1 and 0.63 pmol oocyte-1 h-1
same,D137N R-value,"PfCRT variant D137N; pH 4.5 vs pH 6.0, Fig 1d left",0.64 and 0.53 and 0.59
same,D137N transport activity pH 6.0,PfCRT variant D137N; [3],1.20 pmol oocyte-1 h-1 and 0.70 pmol oocyte-1 h-1 and 1.07 pmol oocyte-1 h-1
